This note sets out measurements from patent US20220275389A1, “MODIFIED EXOPOLYSACCHARIDE RECEPTORS FOR RECOGNIZING AND STRUCTURING MICROBIOTA” (Aarhus Universitet, priority 2019, published 2022).

“Also recorded” adds a separate entry of the source. Like-named read-outs stand apart in the source and are kept apart here.

Assay [1] addresses Lotus japonicus EPR3 ectodomain (EPR3 ED, residues 33-232), wild type, EPR3 SEQ ID NO: 61 (Lotus japonicus, UniProt D3KU53). Nature of the assay: Microscale thermophoresis (MST) binding of EPS ligands to EPR3 ectodomain (ED). Particulars: 100 nM EPR3 ED, pH 7.8, 25° C.; for Kd: 95% confidence interval, read-out: equilibrium dissociation constant (Kd). How it is done: Expression and purification of L. japonicus ecotype Gifu EPR3 ectodomain (ED) was performed as described previously (Kawaharada, Y et al. Nature 2015 523: 308-312). In brief, DNA encoding residues 33-232 of EPR3 (corresponding to the EPR3 ED) containing an N-terminal gp67 secretion signal and a C-terminal 6×His-tag was codon-optimized for insect cell expression (GenScript) and inserted into the pOET2 vector (Oxford Expression Technologies). Baculoviruses, used for infecting Sf9 cells cultured in suspension in serum-free HyClone SFX-Insect medium (FisherScientific), were obtained using the flashBAC GOLD system (OET). Five days post inoculation, the media was dialyzed against buffer containing 50 mM Tris-HCl pH 8.0 and 200 mM NaCl before centrifugation and loaded on a HisTrap excel affinity column (GE Healthcare). The eluted protein was dialyzed against buffer containing 50 mM Tris-HCl pH 8.0 and 200 mM NaCl, and further purified on a HisTrap HP affinity column (GE Healthcare). For crystallization, the EPR3 ED was treated with PNGase F (1:15 w/w ratio) for 1 hour at room temperature and overnight at 4° C. to remove N-linked oligosaccharides. EPR3 ED was then purified on a Mono S 5/50 column (GE Healthcare) and eluted with a linear gradient of 50-300 mM NaCl and 50 mM Tris-HCl, pH 7.0. Both glycosylated and de-glycosylated EPR3 ED were finally purified on a Superdex 75 10/300 column (GE Healthcare) in gel filtration buffer containing 50 mM KH2-PO4 pH 7.8 and 200 mM NaCl (for microscale thermophoresis binding experiments) or 50 mM Tris-HCl pH 8.0 and 200 mM NaCl (for crystallization).
Low molecular mass (LMM) exopolysaccharides (EPS) were isolated from various rhizobial strains including Mesorhizobium loti strain R7A ndvB6, R. leguminosarum bv. viciae 3855 (this work) and Sinorhizobium meliloti B578 (Griffins, J. S. et al. Mol. Microbiol. 2008 69: 479-490) that were deficient in cyclic glucan production were grown on minimal media with glucose as the sole source of carbon. The LMM EPS was isolated from the bacterial culture supernatants and purified via sequential precipitation with 6 volumes of 99.8% EtOH (v/v), followed by 9 volumes EtOH (v/v) and purified by size exclusion chromatography (SEC) as previously described (Muszyński, A. et al. J. Biol. Chem. 2016 291: 20946-20961). O-acetyl groups were removed chemically by mild overnight treatment of native EPS samples with 12.5% NH4OH (Muszyński, A. et al. J. Biol. Chem. 2016 291: 20946-20961). […] The glycosyl composition and linkage was determined as previously described (Muszyński, A. et al. J. Biol. Chem. 2016 291: 20946-20961). […]
Background: MST reads how a fluorescent partner responds to local heating, with and without ligand.

For assay [2], the target named is Lotus japonicus EPR3a ectodomain (EPR3a ED), wild type, EPR3a SEQ ID NO: 62. The assay is described as follows: Microscale thermophoresis (MST) binding of polysaccharides to EPR3a ectodomain (ED). Particulars: for Kd: FIGS. 11E-11H, preparation of FIG. 11D. How it is done:
Low molecular mass (LMM) exopolysaccharides (EPS) were isolated from various rhizobial strains including Mesorhizobium loti strain R7A ndvB6, R. leguminosarum bv. viciae 3855 (this work) and Sinorhizobium meliloti B578 (Griffins, J. S. et al. Mol. Microbiol. 2008 69: 479-490) that were deficient in cyclic glucan production were grown on minimal media with glucose as the sole source of carbon. The LMM EPS was isolated from the bacterial culture supernatants and purified via sequential precipitation with 6 volumes of 99.8% EtOH (v/v), followed by 9 volumes EtOH (v/v) and purified by size exclusion chromatography (SEC) as previously described (Muszyński, A. et al. J. Biol. Chem. 2016 291: 20946-20961). O-acetyl groups were removed chemically by mild overnight treatment of native EPS samples with 12.5% NH4OH (Muszyński, A. et al. J. Biol. Chem. 2016 291: 20946-20961). Native and de-O-acetylated samples were verified via matrix-assisted laser desorption/ionization time of flight mass spectrometry (MALDI-TOF MS) analysis on Applied Biosystems AB SCIEX TOF/TOF 5800 system in either negative or positive reflector ionization modes. The glycosyl composition and linkage was determined as previously described (Muszyński, A. et al. J. Biol. Chem. 2016 291: 20946-20961).
Purified EPR3 was fluorescently labeled using the Monolith NT.115TM Protein Labelling Kit Blue NHS (NanoTemper Technologies) according to the manufacturer's instructions. […] To accurately account for this unspecific binding ligand binding to 50 nM free fluorescent label was measured and this small background was subtracted contribution from all the respective MST binding measurements. […] Binding data were processed with the GraphPad Prism 7 software (GraphPad Software, Inc.) and the equilibrium dissociation constants (Kd) values (95% confidence interval) were calculated using the sigmoidal dose-response equations. […]

For a further assay, the system named is L. japonicus EPR3a ED. Nature of the assay: Microscale thermophoresis (MST) binding to EPR3a ED. Particulars: for binding of EPR3a ED to polysaccharide (detectable or not): FIGS. 11I-11J. How it is done: Purified EPR3 was fluorescently labeled using the Monolith NT.115TM Protein Labelling Kit Blue NHS (NanoTemper Technologies) according to the manufacturer's instructions. All experiments were performed in MST buffer (50 mM K2PO4, pH 7.8, 500 mM NaCl, and 0.05% Tween-20) with a constant concentration of EPR3 ED (100 nM and ˜50% labelling efficiency) and dilution series of the various ligands. The samples were incubated for 30 minutes at room temperature before loaded into standard capillaries for measurements on a Monolith NT.115 TM instrument (NanoTemper Technologies) at 25° C., with blue LED power of 50% and MST power of 20%. To accurately measure the experimental errors and ensure data reproducibility, all MST binding experiments were performed with at least three independently purified samples of EPR3. At the highest ligand concentrations, weak ligand binding to the fluorescent label itself was occasionally observed. To accurately account for this unspecific binding ligand binding to 50 nM free fluorescent label was measured and this small background was subtracted contribution from all the respective MST binding measurements. The competition experiments were performed by pre-incubating labeled EPR3 ED with 250 μM R7A EPS or R7A exoU EPS and assessing the binding of EPR3 ED to titrated R7A exoU EPS or R7A EPS, respectively. Binding data were processed with the GraphPad Prism 7 software (GraphPad Software, Inc.) and the equilibrium dissociation constants (Kd) values (95% confidence interval) were calculated using the sigmoidal dose-response equations.
The EPR3a ED was expressed in insect cells, and the protein was purified as described in Example 1 (FIG. 11D).
MST experiments were performed as described in Example 2 (FIG. 11C, FIGS. 11E-11J).

Setting [3] is: FIGS. 11E-11H, n=3, EPR3a ED preparation of FIG. 11D (figure legend), read-out: equilibrium dissociation constant (Kd).

Lotus japonicus EPR3 ectodomain (EPR3 ED, residues 33-232), wild type, EPR3 SEQ ID NO: 61, sequence (D3KU53 entry or part of it): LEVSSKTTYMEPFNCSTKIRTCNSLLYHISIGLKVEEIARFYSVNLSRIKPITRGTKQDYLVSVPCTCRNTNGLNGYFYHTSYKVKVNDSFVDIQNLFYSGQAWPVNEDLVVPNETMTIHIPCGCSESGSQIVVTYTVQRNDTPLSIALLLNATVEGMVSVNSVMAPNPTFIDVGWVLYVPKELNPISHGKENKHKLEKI

On to `CC(=O)N[C@H]1[C@H](O[C@H]2[C@H](O)[C@@H](NC(C)=O)[C@H](O[C@H]3[C@H](O)[C@@H](NC(C)=O)C(O)O[C@@H]3CO)O[C@@H]2CO)O[C@H](CO)[C@@H](O[C@@H]2O[C@H](CO)[C@@H](O[C@@H]3O[C@H](CO)[C@@H](O[C@@H]4O[C@H](CO)[C@@H](O)[C@H](O)[C@H]4NC(C)=O)[C@H](O)[C@H]3NC(C)=O)[C@H](O)[C@H]2NC(C)=O)[C@@H]1O` (stereo partly shown) [C06, Chitohexose], for which, in assay [1], the binding result is listed as “unable to bind”.
With `O=C(O)[C@H]1O[C@@H](O[C@H]2[C@H](O)[C@@H](O)[C@@H](O[C@H]3[C@H](O)[C@@H](O)[C@H](OC[C@H]4O[C@@H](OC[C@H]5O[C@@H](O[C@H]6[C@H](O)[C@@H](O)[C@H](O[C@H]7[C@H](O)[C@@H](O)[C@H](O[C@H]8[C@@H](O)[C@@H](CO)OC(O)[C@@H]8O)O[C@@H]7CO)O[C@@H]6CO)[C@H](O)[C@@H](O)[C@@H]5O)[C@H](O)[C@@H](O)[C@@H]4O)O[C@@H]3CO)O[C@@H]2C(=O)O)[C@H](O)[C@@H]1O` (stereo partly shown) [R7A deOAc-EPS], the Kd (commonly the free concentration of one partner at which half of the binding sites on the other are occupied at equilibrium, for simple one-to-one binding) in assay [1] was determined as 31.3 ± 11.7 µM; in assay [2] (n=3, figure legend, read-out: equilibrium dissociation constant (Kd)), 57.2 ± 15.6 µM; in assay [2] (read-out: equilibrium dissociation constant of Kd), 57.2 ± 15.6 µM.
On to `CC(=O)N[C@H]1[C@H](O[C@H]2[C@H](O)[C@@H](NC(C)=O)C(O)O[C@@H]2CO)O[C@H](CO)[C@@H](O[C@@H]2O[C@H](CO)[C@@H](O[C@@H]3O[C@H](CO)[C@@H](O)[C@H](O)[C@H]3NC(C)=O)[C@H](O)[C@H]2NC(C)=O)[C@@H]1O` (stereo partly shown) [chitotetraose], for which the “binding of EPR3a ED to polysaccharide (detectable or not)” value is on record as “absence of binding” in the assay with L. japonicus EPR3a ED (n=3) and “did not bind” with L. japonicus EPR3a ED (n=3, listed as chitin). For the same compound, in assay [2] (FIG. 11I, n=3), the binding entry is recorded as “did not bind; also recorded: absence of binding”.
Take “(2,3/3-OAc)β-D-RibfA-(1→4)-a-D-GlcpA-(1→4)-β-D-Glcp-(1→6)-(3OAc)β-D-Glcp-(1→6)-(2OAc)β-D-Glcp-(1→4)-(2/3OAc)β-D-Glcp-(1→4)-β-D-Glcp-(1→3)-β-D-Galp [R7A EPS] [listing 1 of 2 here]”: the Kd on L. japonicus EPR3a ED (FIG. 11C, R^2=0.98, read-out: equilibrium dissociation constant (Kd)) was determined as 25.6 µM; at L. japonicus EPR3a ED (setting [3]), 44.4 ± 11.2 µM.
Regarding “(2,3/3-OAc)β-D-RibfA-(1→4)-a-D-GlcpA-(1→4)-β-D-Glcp-(1→6)-(3OAc)β-D-Glcp-(1→6)-(2OAc)β-D-Glcp-(1→4)-(2/3OAc)β-D-Glcp-(1→4)-β-D-Glcp-(1→3)-β-D-Galp [R7A EPS] [listing 2 of 2 here]”, the Kd in assay [1] amounted to 38.1 ± 7.5 µM.
For S. meliloti EPS [listing 1 of 2 here], the Kd at L. japonicus EPR3a ED (setting [3]) turned out to be 937 ± 389 µM.
For the compound S. meliloti EPS [listing 2 of 2 here], the Kd in assay [1] turned out to be 222 ± 102 µM.
Consider maltodextrin, for which the “binding of EPR3a ED to polysaccharide (detectable or not)” value with L. japonicus EPR3a ED (n=3) is on record as “did not bind; also recorded: absence of binding”.
